Several values for one entry are separate records, joined by “and”; a condition that tells them apart may be missing. Identical values can stand only once. Like-named read-outs stand apart in the source and are kept apart here. Marks after values point to notes of the source that are not given here.
Key:
[1] = system: murine leukemic P388/0; test: XTT cytotoxicity, P388/0; format: cell-based; conditions: Table 1C; XTT, 72 h; read-out: IC50
Outline: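 Growth was read by XTT/PMS reduction over 4 h at 37 °C after 72 h of compound treatment, with absorbance at 450 nm and 630 nm. CCRF-CEM, P388 and their resistant sublines, grown continuously with their selecting drugs, were cultured in duplicate at 5×10^4 cells/mL. The medium was RPMI-1640 with 10% FBS.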

[2] = system: human neuroblastoma SK-N-As; test: SRB cytotoxicity, SK-N-As; format: cell-based; conditions: Table 1C; SRB, 72 h; read-out: IC50
Outline: (§1)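 Cellular protein content measured with sulforhodamine B after trichloroacetic acid fixation, read at 570 nm. Each duplicate run used six to seven concentrations, analysed by the median-effect method. Cells were cultured at 37 °C, 5% CO2 in RPMI 1640-10% FBS, and drug-resistant lines were maintained with their selecting agent.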

[3] = system: SK-N-FI; test: cells; format: cell-based, human; conditions: Table 1C
Outline: as §1

[4] = system: MCF-7; test: SRB cytotoxicity, MCF-7; format: cell-based, human; conditions: Table 1C; SRB, 72 h; read-out: IC50
Outline: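 Monolayer MCF-7 cultures exposed to six to seven drug concentrations in duplicate, then fixed with trichloroacetic acid and stained 30 min with 0.4% sulforhodamine B. Bound dye extracted with unbuffered Tris base, absorbance read at 570 nm; values derived by median-effect plot analysis.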

[5] = system: B16 Melanoma; format: in vivo, B6D2F1 mice
Procedure: Body weight was determined at 0, 2, 4, 6, 8, 10 and 12 days. […] Injections were started on day 1. […] Body weight was determined at 0, 2, 4, 6, 8, 10 and 12 days. […] Injections were started on day 1.

[6] = system: CCRF-CEM/Taxol®; test: CCRF-CEM/Taxol xenograft, i.v. 6 h infusion; format: in vivo, nude mice
Description: Treatment on days 6, 8, 10, 12 and 14.
Treatment on days 19, 21, 23, 25, 27, 39, 41, 43, 45 and 47.

[7] = system: PC-3 Human Prostate Carcinoma; test: PC-3 xenograft; format: in vivo, nude mice; conditions: for Therapeutic effect Rank Order: PC-3; for Average Body Weight, Day 5: initial weight
[8] = system: A549 Human Lung Carcinoma; test: A549 xenograft; format: in vivo, nude mice; conditions: for Average Tumor Size, Day 11: control 96; for Average Tumor Size, Day 15: control 306; for Average Tumor Size, Day 17: control 553; for Average Body Weight, Day 7: initial weight
[9] = system: human ovarian adenocarcinoma SK-OV-3
[10] = CCRF/Taxol Leukemia, dEpoB 30 mg/kg Q2D x 6, Taxol 15 mg/kg Q2D x 6
[11] = 6 hr i.v. infusion: dEpoB 40, Taxol 24 mg/kg
[12] = PC-3 Prostate, dEpoB 40 mg/kg Q2D x 3, Taxol 15 mg/kg Q2D x 3
[13] = dEpoB 30 mg/kg 18 hr i.v. infusion, Taxol 16 mg/kg 6 hr infusion, VBL 2 and VP-16 25 mg/kg i.v. inj
[14] = dEpoB 50 mg/kg, 6 hr i.v. infusion
[15] = A549 Lung, dEpoB 40 mg/kg Q2D x 3, Taxol 15 mg/kg Q2D x 3
[16] = Q2D x 3, 6 hr i.v. infusion: dEpoB 40, Taxol 24 mg/kg
[17] = Q2D x 3: dEpoB 30 mg/kg 18 hr i.v. infusion, Taxol 15 mg/kg 6 hr infusion, VBL 2 and VP-16 25 mg/kg i.v. inj
[18] = dEpoB 50 mg/kg Q2D x 3, 6 hr i.v. infusion
[19] = 35 mg/kg i.p. Q2Dx5 from day 9, day 15
[20] = 35 mg/kg i.p. Q2Dx5 from day 9, day 17
[21] = 35 mg/kg i.p. Q2Dx5 from day 9, day 19
[22] = dEpo B 15 mg/kg i.v. Q2Dx5 from day 9
[23] = dEpo B 15 mg/kg i.v. Q2Dx5 from day 9, day 15
[24] = dEpo B 15 mg/kg i.v. Q2Dx5 from day 9, day 17
[25] = dEpo B 15 mg/kg i.v. Q2Dx5 from day 9, day 19

Structure (SMILES): C/C1=C/C[C@@H](/C(C)=C/c2csc(C)n2)OC(=O)C[C@H](O)C(C)(C)C(=O)[C@H](C)[C@@H](O)[C@@H](C)CCC1 [Desoxyepothilone B, desoxyepothilone B]
- IC50 [1]: 6.8 nM
- IC50 [2]: 21 nM
- folds of resistance (IC50 ratio vs parent cell line) ([3]; SK-N-FI vs SK-N-As): (2.2x)
- IC50 ([3]; SRB, 72 h, read-out: IC50): 46 nM
- IC50 [4]: 2.9 nM
- Average Tumor Volume (T/C) ([5]; 20 mg/kg QD1-4,7-8, day 11): 0.33
- mice died ([5]; 20 mg/kg QDx6 from day 1 (FIG. 44)): 0 of 8
- therapeutic outcome ([6]; 6 hr i.v. infusion): full cure
- Therapeutic effect Rank Order ([6]; CCRF-CEM/Taxol, i.v. infusion): dEpoB >>> Taxol ®
- Lowest Average Tumor Size (T/C) [6, 10]: 0 T/C
- Tumor Disappearance [6, 10]: 3/3
- Therapeutic Effects dEpoB vs Taxol ([6]; CCRF/Taxol Leukemia, dEpoB 30 mg/kg Q2D x 6 vs Taxol 15 mg/kg Q2D x 6): >>>
- Average Body Weight (change), Day 9 [7, 11]: -1.7 g
- Average Body Weight (change), Day 11 [7, 11]: -3.4 g
- Average Body Weight (change), Day 13 [7, 11]: -2.7 g
- Average Tumor Size (TC), Day 9 [7, 11]: 0.40 TC
- Average Tumor Size (TC), Day 11 [7, 11]: 0.19 TC
- Average Tumor Size (TC), Day 13 [7, 11]: 0.12 TC
- Tumor Disappearance [7, 11]: 0/3
- Therapeutic effect Rank Order ([7]; i.v. infusion (order wraps over rows r24-r25)): dEpoB >> VP-16
- Therapeutic effect Rank Order ([7]; i.v./i.p. (order wraps over rows r11-r12)): Taxol ® > dEpoB >>
- Lowest Average Tumor Size (T/C) [7, 12]: 0.12 T/C
- Tumor Disappearance [7, 12]: 0
- Therapeutic Effects dEpoB vs Taxol ([7]; PC-3 Prostate, dEpoB 40 mg/kg Q2D x 3 vs Taxol 15 mg/kg Q2D x 3): <<
- Average Body Weight (change), Day 9 [7, 13]: -2.2 g
- Average Body Weight (change), Day 11 [7, 13]: -5.9 g
- Average Body Weight (change), Day 13 [7, 13]: -5.8 g
- Average Tumor Size (TC), Day 9 [7, 13]: 0.17 TC
- Average Tumor Size (TC), Day 11 [7, 13]: 0.06 TC
- Average Tumor Size (TC), Day 13 [7, 13]: 0.06 TC
- Tumor Disappearance [7, 13]: 0/3
- Average Body Weight (change), Day 9 [7, 14]: -2.1 g
- Average Body Weight (change), Day 11 [7, 14]: -3.0 g
- Average Body Weight (change), Day 13 [7, 14]: -2.6 g
- Average Tumor Size (TC), Day 9 [7, 14]: 0.37 TC
- Average Tumor Size (TC), Day 11 [7, 14]: 0.13 TC
- Average Tumor Size (TC), Day 13 [7, 14]: 0.03 TC
- Tumor Disappearance [7, 14]: 0/3
- Average Body Weight, Day 5 [7, 11]: 28.3 g
- Average Body Weight, Day 5 [7, 13]: 29.4 g
- Average Body Weight, Day 5 [7, 14]: 28.1 g
- Therapeutic effect Rank Order ([8]; A549, i.v. infusion): Taxol ®, dEpoB, VBL > VP-16
- Lowest Average Tumor Size (T/C) [8, 15]: 0.01 T/C
- Tumor Disappearance [8, 15]: 1/3
- Therapeutic Effects dEpoB vs Taxol ([8]; A549 Lung, dEpoB 40 mg/kg Q2D x 3 vs Taxol 15 mg/kg Q2D x 3): ≅
- Average Body Weight (change), Day 11 [8, 16]: -1.6 g
- Average Body Weight (change), Day 13 [8, 16]: -3.2 g
- Average Body Weight (change), Day 15 [8, 16]: -2.4 g
- Tumor Disappearance [8, 16]: 1/3
- Average Tumor Size, Day 11 [8, 16]: 31 mm^3
- Average Tumor Size, Day 15 [8, 16]: 4 mm^3
- Average Tumor Size, Day 17 [8, 16]: 4 mm^3
- Average Body Weight (change), Day 11 [8, 17]: -2.0 g
- Average Body Weight (change), Day 13 [8, 17]: -5.8 g
- Average Body Weight (change), Day 15 [8, 17]: -5.6 g
- Tumor Disappearance [8, 17]: 1/3
- Average Tumor Size, Day 11 [8, 17]: 17 mm^3
- Average Tumor Size, Day 15 [8, 17]: 26 mm^3
- Average Tumor Size, Day 17 [8, 17]: 21 mm^3
- Average Body Weight (change), Day 11 [8, 18]: -2.0 g
- Average Body Weight (change), Day 13 [8, 18]: -3.2 g
- Average Body Weight (change), Day 15 [8, 18]: -2.5 g
- Tumor Disappearance [8, 18]: 1/2
- Average Tumor Size, Day 11 [8, 18]: 33 mm^3
- Average Tumor Size, Day 13 ([8]; dEpoB 50 mg/kg Q2D x 3, 6 hr i.v. infusion, control 128): 19 mm^3
- Average Tumor Size, Day 15 [8, 18]: 6 mm^3
- Average Tumor Size, Day 17 [8, 18]: 6 mm^3
- Average Body Weight, Day 7 [8, 16]: 27.8 g
- Average Body Weight, Day 7 [8, 17]: 29.3 g
- Average Body Weight, Day 7 [8, 18]: 27.1 g
- Average Tumor Size, Day 13 ([8]; mouse, in vivo): 21 mm^3 and 19 mm^3
- Toxicity Death ([9]; 35 mg/kg i.p. Q2Dx5 from day 9): 0/6
- Tumor Disapp. ([9]; 35 mg/kg i.p. Q2Dx5 from day 9): 0/6
- Average Body Weight Change ([9]; 35 mg/kg i.p. Q2Dx5 from day 9, day 13): -1.7 g
- Average Body Weight Change [9, 19]: -2.1 g
- Average Tumor Size (T/C) [9, 19]: 0.57
- Average Body Weight Change [9, 20]: -2.1 g
- Average Tumor Size (T/C) [9, 20]: 0.33
- Average Body Weight Change [9, 21]: -2.4 g
- Average Tumor Size (T/C) [9, 21]: 0.35
- Average Tumor Size (T/C) ([9]; 35 mg/kg i.p. Q2Dx5 from day 9, day 21): 0.28
- Toxicity Death [9, 22]: 4/6^b
- Tumor Disapp. [9, 22]: 0/6
- Average Body Weight Change ([9]; dEpo B 15 mg/kg i.v. Q2Dx5 from day 9, day 13): 0 g
- Average Body Weight Change [9, 23]: -0.6 g
- Average Tumor Size (T/C) [9, 23]: 0.86
- Average Body Weight Change [9, 24]: -1.1 g
- Average Tumor Size (T/C) [9, 24]: 0.56
- Average Body Weight Change [9, 25]: -2.6 g
- Average Tumor Size (T/C) [9, 25]: 0.50
- Average Tumor Size (T/C) ([9]; dEpo B 15 mg/kg i.v. Q2Dx5 from day 9, day 21): 0.44
- tumor size treated/control ([9]; dEpoB 35 mg/kg i.p. Q2Dx5, day 21): 0.28
- Lowest Average Tumor Size (T/C) ([9]; mouse, in vivo): 0.17 T/C
- Therapeutic Effects dEpoB vs Taxol ([9]; mouse, in vivo): <<
- Therapeutic effect Rank Order ([9]; mouse, in vivo): Taxol ® ≈ dEpoB
- Tumor Disappearance ([9]; mouse, in vivo): 0
- Therapeutic effect Rank Order ([9]; mouse, in vivo, iv): Taxol ® > dEpoB

— US6603023B2 (priority 1996, dated 2003)
